Assay results published in US20070066632A1, “Fused bicyclic inhibitors of TGFbeta” (Scios, Inc., priority 2005, published 2007).
pIC50: −log10 of the molar value.

Columns and labels:
TGFβ R1 = biological target: T1, TGFβ R1 (Homo sapiens, UniProt P36897); assay: TGFβ R1 autophosphorylation protocol; assay type: biochemical; conditions: 10 uM ATP, 170 nM TGFβ R1, 20 minutes at room temperature; read-out: IC50 for Kinase Inhibition
T1 sequence (P36897 34-503): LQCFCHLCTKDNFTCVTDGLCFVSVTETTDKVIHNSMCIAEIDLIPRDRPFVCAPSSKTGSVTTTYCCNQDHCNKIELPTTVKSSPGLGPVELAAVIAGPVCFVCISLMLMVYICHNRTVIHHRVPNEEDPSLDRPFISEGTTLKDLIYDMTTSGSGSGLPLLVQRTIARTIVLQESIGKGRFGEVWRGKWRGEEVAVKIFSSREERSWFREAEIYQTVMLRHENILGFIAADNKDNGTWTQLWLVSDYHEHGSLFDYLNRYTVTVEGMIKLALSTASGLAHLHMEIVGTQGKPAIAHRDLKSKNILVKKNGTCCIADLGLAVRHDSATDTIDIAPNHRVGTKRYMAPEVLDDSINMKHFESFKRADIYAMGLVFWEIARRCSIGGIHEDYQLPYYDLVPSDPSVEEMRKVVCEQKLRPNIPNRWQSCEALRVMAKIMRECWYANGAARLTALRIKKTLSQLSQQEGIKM
Procedure: The compounds of the invention were tested for their ability to inhibit TGFβ by a TGFβ R^1 autophosphorylation protocol. This was conducted as follows: Compound dilutions and reagents were prepared fresh daily. Compounds were diluted from DMSO stock solutions to 2 times the desired assay concentration, keeping final DMSO concentration in the assay less than or equal to 1%. TGFβ R1 was diluted to 4 times the desired assay concentration in buffer+DTT. ATP was diluted into 4× reaction buffer, and gamma-^33P-ATP was added at 60 uCi/mL.
The assay was performed by adding 10 ul of the enzyme to 20 ul of the compound solution. The reaction was initiated by the addition of 10 ul of ATP mix. Final assay conditions included 10 uM ATP, 170 nM TGFβ R1, and […] in 20 mM MOPS, pH7. The reactions were incubated at room temperature for 20 minutes. The reactions were stopped by transferring 23 ul of reaction mixture onto a phosphocellulose 96-well filter plate, which had been pre-wetted with 15 ul of 0.25M H3PO4 per well. After 5 minutes, the wells were washed 4× with 75 mM H3PO4 and once with 95% ethanol. The plate was dried, scintillation cocktail was added to each well, and the wells were counted in a Packard TopCount microplate scintillation counter.

[1] = test system: HCV replicons (HCV type 1b NS3-NS5B) in Huh-Luc cells; assay: HCV replicon assay (Huh-7 luc/neo, luciferase reporter); assay type: cell-based; conditions: Hepatitis C virus, Huh-7, 72 h, incubation of three days, luciferase activity
From the text: The pyrido[2,3-d]pyrimidine compounds of the present invention were examined for activity in the inhibition of HCV RNA replication in a cellular assay. […] The cellular assay was based on a bicistronic expression construct, as described by Lohmann et al. (1999) Science vol. 285 pp. 110-113 with modifications described by Krieger et al. (2001) Journal of Virology 75: 4614-4624, in a multi-target screening strategy. In essence, the method was as follows.
The assay utilized the stably transfected cell line Huh-7 luc/neo (hereafter referred to as Huh-Luc). […]
The replicon cells were plated in 384-well plates in the presence of the test and control compounds which were added in various concentrations. Following an incubation of three days, HCV replication was measured by assaying luciferase activity (using standard luciferase assay substrates and reagents and a Perkin Elmer ViewLux™, ultraHTS microplate imager). […] The inhibitory activity of the compound on luciferase activity was monitored on the Huh-Luc cells, enabling a dose-response curve for each test compound. […]
The replicon cells are plated in 384 well plates in the presence of the test and control compounds which are added in various concentrations. […] The inhibitory activity of the compound on luciferase activity is monitored on the Huh-Luc cells, enabling a dose-response curve for each test compound.

| SMILES | pIC50 (TGFβ R1) | EC50 [1] [µM] |
| --- | --- | --- |
| NC(=O)c1cnccc1Nc1nc(-c2cc(Cl)ccc2F)nc2ncccc12 [Compound 1] | 7.70 | 0.76 |
| CNC(=O)c1cnccc1Nc1nc(-c2cc(Cl)ccc2F)nc2ncccc12 [Compound 2] | 7.15 | 11.9 |
| CNC(=O)c1cnccc1Nc1nc(-c2cc(Cl)ccc2NC)nc2ncccc12 [Compound 3] | 5.80 |  |
| CNC(=O)c1cnccc1Nc1nc(-c2cc(Cl)ccc2F)nc2nc(N)ccc12 [Compound 4] | 7.52 |  |
| CNC(=O)c1cnccc1Nc1nc(-c2cc(Cl)ccc2F)nc2nc(NCCN(C)C)ccc12 [Compound 5] | 5.22 |  |
| CC(O)CNC(=O)c1cnccc1Nc1nc(-c2cc(Cl)ccc2F)nc2nc(NCCN(C)C)ccc12 (stereo not shown) [Compound 6] | 4.91 |  |
| CNC(=O)c1cnccc1Nc1nc(-c2cc(Cl)ccc2F)nc2nc(NCCOC)ccc12 [Compound 7] | 6.01 |  |

More lines, main results first:

| pIC50 (TGFβ R1) | SMILES | EC50 [1] [µM] |
| --- | --- | --- |
| 5.85 | COc1ccc(CNc2ccc3c(Nc4ccncc4C(=O)NC4CC4)nc(-c4cc(Cl)ccc4F)nc3n2)cc1 [Compound 8] |  |
| 5.57 | Nc1ccc2c(Nc3ccncc3C(=O)NC3CC3)nc(-c3cc(Cl)ccc3F)nc2n1 [Compound 9] |  |
| 5.30 | C[C@H](O)CNC(=O)c1cnccc1Nc1nc(-c2cc(Cl)ccc2F)nc2nc(N)ccc12 [Compound 10] |  |
| 5.86 | COC(=O)c1cnccc1Nc1nc(-c2cc(Cl)ccc2F)nc2ncccc12 [Compound 11] |  |
| 6.64 | O=C(O)c1cnccc1Nc1nc(-c2cc(Cl)ccc2F)nc2ncccc12 [Compound 12] |  |
| 6.28 | CCOC(=O)c1cnccc1Nc1nc(-c2cc(Cl)ccc2F)nc2ncccc12 [Compound 13] |  |
| 6.65 | CN(Cc1ccccc1)c1ccc2c(Nc3ccncc3C(=O)O)nc(-c3cc(Cl)ccc3F)nc2n1 [Compound 14] |  |
| 6.24 | COc1ccc(CN(Cc2ccc(OC)cc2)c2ccc3c(Nc4ccncc4C(=O)O)nc(-c4cc(Cl)ccc4F)nc3n2)cc1 [Compound 15] |  |
| 6.13 | COC(=O)c1cnccc1Nc1nc(-c2cc(Cl)ccc2F)nc2nc(N(Cc3ccc(OC)cc3)Cc3ccc(OC)cc3)ccc12 [Compound 16] |  |
| 6.00 | COc1ccc(CNc2ccc3c(Nc4ccncc4C(=O)NCCCN4CCOCC4)nc(-c4cc(Cl)ccc4F)nc3n2)cc1 [Compound 18] |  |
